From US10450549B2, “Aryloxyphenoxypropionate tolerance in turfrgass species and use of AAD1 as a selectable marker” (Dow AgroSciences, LLC, priority 2004, dated 2019)
Like-named read-outs stand apart in the source and are kept apart here.

Key:
[1] = tested on: T4 Arabidopsis homozygous for AAD1 (v3) (line AAD1.01.315.076); test: Foliar-applied auxinic herbicides on homozygous T4 AAD1 (v3) Arabidopsis, % injury 14 DAT; format: in vivo, Arabidopsis thaliana; details: AAD1.01.315.076.T4 homozygous AAD1 plants
Description: (§1) The ability of AAD1 (v3) to provide resistance to other aryloxyphenoxyalkanoate auxin herbicides in transgenic Arabidopsis was determined by foliar application of various substrates described in Example 6.8. T4 generation Arabidopsis seed, homozygous for AAD1 (v3) (line AAD1.01.315.076) was stratified, and sown into selection trays much like that of Arabidopsis (Example 6.4). A transformed-control line containing PAT and the insect resistance gene Cry1F was planted in a similar manner. Seedlings were transferred to individual 3-inch pots in the greenhouse. All plants were sprayed with the use of a track sprayer set at 187 L/ha. […] All applications were formulated in 200 mM Hepes buffer (pH 7.5). Each treatment was replicated 3-4 times. Plants were evaluated at 3 and 14 days after treatment and are averaged over two experiments.

[2] = tested on: transformed-control line containing PAT and Cry1F; test: Foliar-applied auxinic herbicides on control (PAT/Cry1F, wildtype) Arabidopsis, % injury 14 DAT; format: in vivo, Arabidopsis thaliana; details: PatCry1f - Control
Description: as §1

AAD1 (v1) = target: T1, AAD1 (v1) (Sphingobium herbicidovorans, UniProt Q8KSC8); test: Colorimetric phenol detection assay of AAD1 (v1) activity (purified enzyme or E. coli extract); format: biochemical; details: for activity of AAD1 (v1) E. coli extract on substrate: 0.5 mM substrate, 4 μl extract, 15 min; for A510, AAD1 / A510, AAD1 (10x): Table 4, substrate 1 mM; for A510, AAD1: 1 μg purified AAD1 (v1) per 0.16 ml assay; for A510, AAD1 (10x): 10 μg purified AAD1 (v1) per 0.16 ml assay
T1 construct: made in house; host or cells: E. coli BL-21 Star (DE3), plasmid pDAB3203
T1 sequence (Q8KSC8 whole entry): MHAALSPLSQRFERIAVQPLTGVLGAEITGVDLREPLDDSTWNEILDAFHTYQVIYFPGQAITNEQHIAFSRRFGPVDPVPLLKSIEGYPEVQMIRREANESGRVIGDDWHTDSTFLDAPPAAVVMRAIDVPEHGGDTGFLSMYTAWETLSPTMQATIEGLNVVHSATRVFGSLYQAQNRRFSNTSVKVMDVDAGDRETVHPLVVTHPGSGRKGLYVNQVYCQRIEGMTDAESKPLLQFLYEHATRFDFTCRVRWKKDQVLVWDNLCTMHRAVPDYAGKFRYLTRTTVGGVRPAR

[3] = tested on: AAD1 (v3) T1 tobacco (events 721(2)-013.010 and 721(3)-008.005); test: Segregating AAD1 T1 tobacco response to phenoxy auxin herbicides; format: in vivo, Nicotiana tabacum
From the text: (§2) Two AAD1 (v3) tobacco lines (event 721(2)-013.010 and 721(3)-008.005) were chosen from the T0 generation. The T1 seed was stratified, and sown into selection trays much like that of Arabidopsis (Example 6.4), followed by selective removal of untransformed nulls in this segregating population with 280 g ai/ha glufosinate (PAT selection). Survivors were transferred to individual 3-inch pots in the greenhouse. […] Improved consistency of response is anticipated in T1 plants not having come directly from tissue culture. These plants were compared against wildtype KY 160 tobacco. All plants were sprayed with the use of a track sprayer set at 187 L/ha. […] All applications were formulated in 200 mM Hepes buffer (pH 7.5). Each treatment was replicated 4 times. Plants were evaluated at 3 and 14 days after treatment. Plants were assigned injury rating with respect to stunting, chlorosis, and necrosis. The T1 generation is segregating, so some variable response is expected due to difference in zygosity. (Table 28).

wildtype KY 160 tobacco = test: Wildtype tobacco response to phenoxy auxin herbicides; format: in vivo, Nicotiana tabacum; details: KY160-Wildtype
Description: Each treatment was replicated 1-3 times. Injury ratings were recorded 3 and 14 DAT. […] In several events, some initial auxinic herbicide-related epinasty occurred at doses of 800 g ae/ha or less. […] All events suffered some level temporary auxinic damage 3 DAT when treated with 3200 g ae/ha. Some leaf burning also occurred at this high rate due to the acidity of the spray solution. Future trials at high 2,4-D rates were buffered. […] Some events were inconsistent in response among replicates and were deemed “variable” (Table 27).
as §2

Hi II X 5XH751 = test: Greenhouse injury of non-transformed Hi II X 5XH751 corn (2,4-D DMA, glyphosate, glufosinate and combinations); format: in vivo
Description: (§3) F1 seeds were planted individually into 3-inch pots prepared with Metro-Mix® 360 growing medium (Sun Gro Horticulture). […] For the remainder of the study the plants were subirrigated with deionized water.
(§4) The plants were sprayed with rates of 2,4-D DMA, glyphosate, glufosinate, and various combinations of the three. All applications were formulated in 200 mM Hepes buffer (pH 7.5). In spray applications where glufosinate was present the treatment was formulated with the addition of 2% w/v ammonium sulfate.
(§5) At 3 and 14 days after treatment (DAT) plants were evaluated. Plants were assigned injury rating with respect to stunting, chlorosis, and necrosis. Plants assigned an injury rating of 90% or above are considered dead.

[4] = tested on: F1 corn containing AAD1 (v3), PAT, and glyphosate resistance genes; test: Greenhouse injury of F1 corn stacked with AAD1 (v3), PAT and glyphosate resistance (2,4-D DMA, glyphosate, glufosinate and combinations); format: in vivo; details: RR/PAT/AAD1
From the text: Homozygous T2 AAD1 (v3)/PAT corn plants were crossed with glyphosate resistant corn plants producing F1 seed containing AAD1 (v3), PAT, and glyphosate resistance genes as described in the previous example.
as §3, §4, §5

[5] = tested on: Agrostis palustris var. Pencross; test: Bentgrass plate test bioassay for herbicide degradation; format: in vivo; details: for GR50 ratio: enzyme-expressing lysate vs blank vector, ≥ 2 = threshold
Description: Because of the selective nature of the herbicides being tested (i.e., monocot plants controlled by AOPP herbicides and dicot plants controlled by auxinic herbicides), wildtype Agrostis palustris var. Pencross and Arabidopsis thaliana var. Columbia were used as monocot and dicot test species, respectively. Each species is amenable to germination and growth in small Petri dishes.
Twenty to thirty sterilized seeds for each test species used were added onto a sterile, solidified agar Plate Test Medium (PTM) [2.5 mM KNO3, 2.5 mM KH2PO4, […], 10 mM NaEDTA (pH 8.0), 2 mM MgSO4, 2 mM Ca(NO3) 2, 70 μM H3BO3, 14 μM MnCl2, 0.5 μM CuSO4, 1 μM ZnSO4, 0.2 μM NaMoO4.2H2O, 10 μM NaCl, 10 nM CoCl2.H2O, 0.8% (w/v) sucrose, 0.4% agarose (w/v)] for bioassay in 60×15-mm Petri dishes (Falcon 1007). PTM was additionally modified by adding up to six rates of test herbicide standards or herbicide-enzyme test solution dilutions such that the four-fold concentration increments covered a rate range of three orders of magnitude with the GR50 rate (50% growth reduction) approximately in the center of the range.
For herbicide-enzyme test solutions, the maximal concentration was determined based on the nominal concentration before any subsequent enzymatic degradation would occur. Seeds were evenly spread by adding 3 ml of melted PTM of the same composition, swirling, and allowing to solidify. Plates were sealed and maintained under sterile conditions in a low light growth chamber (24 h day^−1, 100 μE/m^2s^1, 23° C.) for 7 days. Root length or root+shoot length were measured for five randomly chosen Arabidopsis and bentgrass plants, respectively, average mean length (percent of untreated control) vs. nominal herbicide concentration and GR50 determined.

[6] = tested on: AAD1 (v3)-transformed T0 corn events; test: Tolerance of T0 AAD1 (v3) corn plants (pDAB3404) to postemergence AOPP herbicides; format: in vivo
[7] = tested on: Hi-II corn grown from seed; test: Lethal dose of AOPP herbicides on non-transformed Hi-II corn
[8] = Agrostis stolonifera, AAD1 (v1)-expressing lysate, nominal concentration, read-out: GR50, Chemical + AAD1 v1
[9] = Escherichia coli, in Agrostis stolonifera, cell lysate of E. coli pET vector without gene insert, read-out: GR50, Chemical + Blank Vector
[10] = purified AAD1 (v1), 1 mM substrate

C[C@@H](Oc1ccc(Cl)cc1Cl)C(=O)O [R-dichlorprop]
Ave % Injury 14DAT ([1]; 50 g ae/ha foliar): 3% | Ave % Injury 14DAT ([1]; 200 g ae/ha foliar): 3% | Ave % Injury 14DAT ([1]; 800 g ae/ha foliar): 3% | Ave % Injury 14DAT ([1]; 3200 g ae/ha foliar): 3% | Ave % Injury 14DAT ([2]; 50 g ae/ha foliar): 31% | Ave % Injury 14DAT ([2]; 200 g ae/ha foliar): 73% | Ave % Injury 14DAT ([2]; 800 g ae/ha foliar): 89% | Ave % Injury 14DAT ([2]; 3200 g ae/ha foliar): 95% | kcat (AAD1 (v1); purified AAD1 (v1)): 0.435 s⁻¹ | Km (AAD1 (v1); purified AAD1 (v1), 25 mM MOPS pH 6.8, 25° C., read-out: Km ± SE): 75 ± 10 µM | Vmax ± SE (AAD1 (v1); purified AAD1 (v1), Michaelis-Menten fit): 0.79 ± 0.03 μmol min^−1 mg^−1 AAD1 | Average % Injury of Replicates 14 DAT ([3]; 560 g ae/ha, 721(2)013.010 (medium tolerance in T0 generation)): 5% | Average % Injury of Replicates 14 DAT ([3]; 560 g ae/ha, 721(3)008.005 (high tolerance in T0 generation)): 0% | Average % Injury of Replicates 14 DAT ([3]; 1120 g ae/ha, 721(2)013.010 (medium tolerance in T0 generation)): 5% | Average % Injury of Replicates 14 DAT ([3]; 1120 g ae/ha, 721(3)008.005 (high tolerance in T0 generation)): 0% | Average % Injury of Replicates 14 DAT ([3]; 2240 g ae/ha, 721(2)013.010 (medium tolerance in T0 generation)): 5% | Average % Injury of Replicates 14 DAT ([3]; 2240 g ae/ha, 721(3)008.005 (high tolerance in T0 generation)): 0% | Average % Injury of Replicates 14 DAT ([3]; 4480 g ae/ha, 721(2)013.010 (medium tolerance in T0 generation)): 10% | Average % Injury of Replicates 14 DAT ([3]; 4480 g ae/ha, 721(3)008.005 (high tolerance in T0 generation)): 5% | injury of T1 AAD1 (v3) tobacco ([3]; rates below 1× field rates (560 g ae/ha), either event): No injury was observed | Average % Injury of Replicates 14 DAT (wildtype KY 160 tobacco; 560 g ae/ha): 70% | Average % Injury of Replicates 14 DAT (wildtype KY 160 tobacco; 1120 g ae/ha): 75% | Average % Injury of Replicates 14 DAT (wildtype KY 160 tobacco; 2240 g ae/ha): 88% | Average % Injury of Replicates 14 DAT (wildtype KY 160 tobacco; 4480 g ae/ha): 95%

CP(=O)(O)CCC(N)C(=O)O (stereo not shown) [glufosinate]
% Injury at 14 DAT Ave (Hi II X 5XH751; 470 g ae/ha (1X)): 80% | % Injury at 14 DAT Ave (Hi II X 5XH751; 940 g ae/ha (2X)): 90% | % Injury at 14 DAT Ave (Hi II X 5XH751; 1880 g ae/ha (4X)): 96% | % Injury at 14 DAT Ave ([4]; 470 g ae/ha (1X)): 0% | % Injury at 14 DAT Ave ([4]; 940 g ae/ha (2X)): 3% | % Injury at 14 DAT Ave ([4]; 1880 g ae/ha (4X)): 15%

CC(Oc1ccc(Oc2ncc(C(F)(F)F)cc2Cl)cc1)C(=O)O (stereo not shown) [Haloxyfop-RS]
activity of AAD1 (v1) E. coli extract on substrate (AAD1 (v1)): cleaved | IC50 ([5]; Agrostis stolonifera, 168 h, root+shoot length, 7 days, read-out: GR50, Chemical alone): 28 nM | IC50 [5, 8]: 520 nM | IC50 [5, 9]: 21 nM | GR50 ratio [5]: 25

CC(Oc1ccc(Oc2ccc(Cl)cc2Cl)cc1)C(=O)O (racemic) [(R,S)- diclofop]
activity of AAD1 (v1) E. coli extract on substrate (AAD1 (v1)): cleaved | A510, AAD1 (AAD1 (v1)): 0.155 | A510, AAD1 (10x) (AAD1 (v1)): 1.663 | herbicidal activity after AAD1 (v1) treatment, bentgrass plate bioassay ([5]; AAD1 (v1) extract): loss of herbicidal activity | IC50 [5, 8]: 130 nM | IC50 [5, 9]: 20 nM | GR50 ratio [5]: 7

C[C@@H](Oc1ccc(Oc2ccc(C#N)cc2F)cc1)C(=O)O [cyhalofop]
% Injury 14 DAT ([6]; 62.5 g ae/ha, construct 3404 event 001 clone 018): 0% | % Injury 14 DAT ([6]; 62.5 g ae/ha, construct 3404 event 022 clone 024): 0% | % Injury 14 DAT ([6]; 62.5 g ae/ha, construct 3404 event 038 clone 018): 0% | % Injury 14 DAT ([6]; 125 g ae/ha, construct 3404 event 022 clone 018): 0% | A510, AAD1 (AAD1 (v1)): 0.114 | A510, AAD1 (10x) (AAD1 (v1)): 1.26 | activity relative to the dichlorprop rate (AAD1 (v1); [10]): 21% | activity relative to the quizalofop rate (AAD1 (v1); [10]): 27% | lethal dose ([7]; Clincher + 1% COC (v/v)): 62.5 g ae/ha) | rate that effectively kills (>95% injury) three to four leaf Hi-II corn ([7]; postemergence, commercial formulations): 62.5 g ae/ha
